Data set [1] has as its system MCF7. The data set is described as follows: animal or person. The note with it: Mus musculus, MCF7, po, 672 h, read-out: TGI.
Description: Antitumor activity in human MCF7 cells xenografted in 17beta-estradiol-treated NOD/SCID mouse model assessed as tumor growth inhibition at 30 mg/kg, po QD for 28 days relative to control
Data set [2] is described as follows: Cmax in human MCF7 cells xenografted in 17beta-estradiol-treated NOD/SCID mouse model at 10 mg/kg, po and measured after 18 hrs post last dose. The note with it: in vivo. (In general: In xenograft studies the graft and the host belong to different species.)
Data set [3] can be described thus: AUC (0-24hrs) in human MCF7 cells xenografted in 17beta-estradiol-treated NOD/SCID mouse model at 30 mg/kg, po and measured after 18 hrs post last dose. The note with it: in vivo.
Data set [4] concerns the target T1, Protein cereblon/Estrogen receptor (Homo sapiens) (UniProt P03372+Q96SW2). As to the kind of experiment: Protac activity at E3 ubiquitin-protein ligase/ERalpha in human MCF7 cells xenografted in 17beta-estradiol-treated NOD/SCID mouse model assessed as reduction in ERalpha degradation at 10 mg/kg, po and measured after 18 hrs post last dose relative to control. Also on record: scale not given: the % may be the effect or the level left.

A short description of data set [5]: AUC (0-24hrs) in human MCF7 cells xenografted in 17beta-estradiol-treated NOD/SCID mouse model at 10 mg/kg, po and measured after 18 hrs post last dose. The note with it: in vivo.
Data set [6] is described as follows: Antitumor activity in tamoxifen-resistant human MCF7 cells xenografted in 17beta-estradiol-treated NOD/SCID mouse model assessed as tumor growth inhibition at 30 mg/kg, po QD for 28 days relative to control. The format is functional. The following applies: tamoxifen-resistant MCF7 cell, 672 h, time 28 day, read-out: TGI.
Data set [7] concerns MCF7. As to the kind of experiment: animal or person. The note with it: Mus musculus, MCF7, 18 h, read-out: TGI.
Description: Antitumor activity in human MCF7 cells xenografted in 17beta-estradiol-treated NOD/SCID mouse model assessed as tumor growth inhibition at 30 mg/kg, sc and measured after 18 hrs post last dose
Data set [8] in a line: Antitumor activity in tamoxifen-resistant human MCF7 cells xenografted in 17beta-estradiol-treated NOD/SCID mouse model assessed as tumor growth inhibition at 30 mg/kg, po QD for 28 days in the presence of palbociclib at 60 mg/kg relative to control. The format is functional. The note with it: tamoxifen-resistant MCF7 cell, 672 h, time 28 day, read-out: TGI.
The target in data set [9] is T1, Protein cereblon/Estrogen receptor (Homo sapiens). The data set is described as follows: Protac activity at E3 ubiquitin-protein ligase/ERalpha in human MCF7 cells xenografted in 17beta-estradiol-treated NOD/SCID mouse model assessed as reduction in ERalpha degradation at 30 mg/kg, po and measured after 18 hrs post last dose relative to control. Also on record: scale not given: the % may be the effect or the level left.

A short description of data set [10]: AUC (0-24hrs) in human MCF7 cells xenografted in 17beta-estradiol-treated NOD/SCID mouse model at 3 mg/kg, po and measured after 18 hrs post last dose. The note with it: in vivo.
Data set [11] is described as follows: Cmax in human MCF7 cells xenografted in 17beta-estradiol-treated NOD/SCID mouse model at 30 mg/kg, po and measured after 18 hrs post last dose. The following applies: in vivo.
Data set [12] in a line: Cmax in human MCF7 cells xenografted in 17beta-estradiol-treated NOD/SCID mouse model at 3 mg/kg, po and measured after 18 hrs post last dose. The note with it: in vivo.
Data set [13] concerns MCF7. As to the kind of experiment: animal or person. The note with it: Mus musculus, MCF7, 18 h, read-out: TGI. The source holds these as a separate data set.
Description: Antitumor activity in human MCF7 cells xenografted in 17beta-estradiol-treated NOD/SCID mouse model assessed as tumor growth inhibition at 10 mg/kg, sc and measured after 18 hrs post last dose
In data set [14] the test system is MCF7. The data set is described as follows: animal or person. The following applies: Mus musculus, MCF7, po, 672 h, read-out: TGI. This is another data set of the same source.
Description: Antitumor activity in human MCF7 cells xenografted in 17beta-estradiol-treated NOD/SCID mouse model assessed as tumor growth inhibition at 30 mg/kg, po QD for 28 days in the presence of palbociclib at 60 mg/kg relative to control
The subject of data set [15] is MCF7. The data set is described as follows: animal or person. The note with it: Mus musculus, MCF7, 336 h, read-out: TGI.
Description: Antitumor activity in human MCF7 cells xenografted in 17beta-estradiol-treated NOD/SCID mouse model assessed as tumor growth inhibition at 200 mg/kg, sc BIW for 2 weeks in the presence of palbociclib at 60 mg/kg relative to control
Data set [16] has as its target T1, Protein cereblon/Estrogen receptor (Homo sapiens). As to the kind of experiment: Protac activity at E3 ubiquitin-protein ligase/ERalpha in human MCF7 cells xenografted in 17beta-estradiol-treated NOD/SCID mouse model assessed as reduction in ERalpha degradation at 3 mg/kg and measured after 18 hrs post last dose relative to control. In kind it is organism-based. Also on record: scale not given: the % may be the effect or the level left.

Data set [17] has as its system MCF7. As to the kind of experiment: cells. The note with it: Homo sapiens.
Another data set addresses Estrogen receptor beta (Homo sapiens, UniProt Q92731). The data set is described as follows: Inhibition of ERbeta (261 to 500 residues) in doxycycline-induced human HEK293 cells incubated overnight by luciferase based assay. The format is cell-based.
For data set [18], the system named is MCF7. The data set is described as follows: cells. The following applies: Homo sapiens. This is another data set of the same source.
Description: Anti-proliferative activity against wild type human MCF7 cells assessed as reduction in cell growth by CellTiter-Glo assay
Data set [19] has as its system MCF7. The data set is described as follows: cells. The following applies: Homo sapiens. This is another data set of the same source.
Data set [20] can be described thus: Antitumor activity against human HCI-013 cells xenograft mouse model assessed as tumor growth inhibition at 100 mg/kg relative to control. The format is functional. The note with it: read-out: TGI.
In data set [21] the target is T2, Progesterone receptor (Homo sapiens) (UniProt P06401).
T2 sequence (whole entry): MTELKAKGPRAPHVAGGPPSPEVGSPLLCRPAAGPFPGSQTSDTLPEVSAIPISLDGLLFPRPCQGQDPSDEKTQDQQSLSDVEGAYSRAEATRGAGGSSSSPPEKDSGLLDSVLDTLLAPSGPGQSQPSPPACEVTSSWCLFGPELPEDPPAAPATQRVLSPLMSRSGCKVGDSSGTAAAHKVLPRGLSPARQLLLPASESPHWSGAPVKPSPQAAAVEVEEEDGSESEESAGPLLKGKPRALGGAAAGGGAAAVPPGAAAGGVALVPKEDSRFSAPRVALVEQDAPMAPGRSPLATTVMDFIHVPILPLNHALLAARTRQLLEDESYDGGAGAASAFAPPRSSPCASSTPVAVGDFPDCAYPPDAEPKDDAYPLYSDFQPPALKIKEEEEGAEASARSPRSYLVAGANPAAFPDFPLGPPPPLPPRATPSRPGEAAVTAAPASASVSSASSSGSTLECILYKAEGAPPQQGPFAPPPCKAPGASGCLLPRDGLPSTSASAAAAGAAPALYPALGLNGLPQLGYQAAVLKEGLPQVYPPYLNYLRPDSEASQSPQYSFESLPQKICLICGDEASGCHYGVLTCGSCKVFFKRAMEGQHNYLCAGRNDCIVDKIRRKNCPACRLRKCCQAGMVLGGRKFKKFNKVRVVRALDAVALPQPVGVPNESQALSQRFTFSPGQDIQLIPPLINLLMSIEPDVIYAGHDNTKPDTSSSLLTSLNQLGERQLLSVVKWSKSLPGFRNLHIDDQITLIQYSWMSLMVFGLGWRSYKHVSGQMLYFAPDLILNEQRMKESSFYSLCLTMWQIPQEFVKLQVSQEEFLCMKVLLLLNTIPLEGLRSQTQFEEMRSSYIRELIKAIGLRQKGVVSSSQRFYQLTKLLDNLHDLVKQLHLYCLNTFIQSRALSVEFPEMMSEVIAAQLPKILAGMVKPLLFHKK
As to the kind of experiment: Inhibition of PGR transcription in human MCF7 harboring ERalpha […] mutant measured upto 96 hrs by qPCR analysis relative to control. In kind it is cell-based. Background: In qPCR the cycle at which signal appears reflects the starting amount.

The subject of data set [22] is MCF7. As to the kind of experiment: Antiproliferative activity against human MCF7 cells harboring wild type ERalpha assessed as inhibition of cell growth incubated for 6 to 7 days by high content imaging assay. In kind it is functional, cell-based.
For data set [23], the system named is MCF7. The data set is described as follows: Antiproliferative activity against human MCF7 cells harboring ERalpha Y537N mutant assessed as inhibition of cell growth incubated for 6 to 7 days by high content imaging assay. The format is functional, cell-based.
Data set [24] deals with T2, Progesterone receptor (Homo sapiens). The data set is described as follows: Inhibition of PGR transcription in human MCF7 harboring wild type ERalpha measured upto 96 hrs by qPCR analysis relative to control. In kind it is cell-based.
Another data set deals with T3, Estrogen receptor (Homo sapiens, UniProt P03372).
T3 sequence (P03372 whole entry): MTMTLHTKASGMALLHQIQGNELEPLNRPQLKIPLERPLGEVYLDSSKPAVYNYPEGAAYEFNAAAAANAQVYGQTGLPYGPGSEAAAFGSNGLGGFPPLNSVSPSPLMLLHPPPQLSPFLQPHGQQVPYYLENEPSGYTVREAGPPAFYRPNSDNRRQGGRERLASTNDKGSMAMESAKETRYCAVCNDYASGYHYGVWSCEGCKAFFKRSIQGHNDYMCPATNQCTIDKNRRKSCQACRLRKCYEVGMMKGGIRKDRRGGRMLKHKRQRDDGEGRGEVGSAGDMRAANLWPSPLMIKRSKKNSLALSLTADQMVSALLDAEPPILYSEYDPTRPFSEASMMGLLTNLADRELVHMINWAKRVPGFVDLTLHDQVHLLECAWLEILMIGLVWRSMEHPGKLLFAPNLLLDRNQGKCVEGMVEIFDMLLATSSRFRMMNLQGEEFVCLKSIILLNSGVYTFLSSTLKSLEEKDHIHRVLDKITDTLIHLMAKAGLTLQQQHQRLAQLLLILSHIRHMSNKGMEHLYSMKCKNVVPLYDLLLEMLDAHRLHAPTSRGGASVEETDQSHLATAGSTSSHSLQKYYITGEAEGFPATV
As to the kind of experiment: Induction of ERalpha degradation (unknown origin).

Each structure is given as a SMILES string.

As a reminder, the Cmax is the maximum level reached in the sampled fluid or tissue. The AUC(0-t) is exposure summed from dosing to a finite time, without extrapolation to infinity. One may read the EC50 as the concentration at which the effect is half-maximal. The term IC50 denotes the concentration needed to halve the response being measured. As usually defined, the inhibition is how much of the control response was suppressed.

T1 sequence (Q96SW2 whole entry, looked up, one chain of several): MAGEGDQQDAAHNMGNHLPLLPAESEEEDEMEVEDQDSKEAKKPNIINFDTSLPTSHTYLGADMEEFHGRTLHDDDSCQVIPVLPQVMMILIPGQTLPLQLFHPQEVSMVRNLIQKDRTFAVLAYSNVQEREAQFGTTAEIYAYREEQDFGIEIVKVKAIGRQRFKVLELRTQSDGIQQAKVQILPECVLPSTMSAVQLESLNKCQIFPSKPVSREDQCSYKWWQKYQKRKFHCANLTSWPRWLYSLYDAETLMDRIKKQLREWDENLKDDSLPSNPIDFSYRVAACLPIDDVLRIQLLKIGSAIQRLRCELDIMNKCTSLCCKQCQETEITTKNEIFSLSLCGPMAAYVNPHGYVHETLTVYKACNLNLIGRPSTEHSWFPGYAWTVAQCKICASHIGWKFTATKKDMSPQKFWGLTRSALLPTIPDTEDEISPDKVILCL
Sequence of Estrogen receptor beta (Q92731 whole entry, the tested form may be a part): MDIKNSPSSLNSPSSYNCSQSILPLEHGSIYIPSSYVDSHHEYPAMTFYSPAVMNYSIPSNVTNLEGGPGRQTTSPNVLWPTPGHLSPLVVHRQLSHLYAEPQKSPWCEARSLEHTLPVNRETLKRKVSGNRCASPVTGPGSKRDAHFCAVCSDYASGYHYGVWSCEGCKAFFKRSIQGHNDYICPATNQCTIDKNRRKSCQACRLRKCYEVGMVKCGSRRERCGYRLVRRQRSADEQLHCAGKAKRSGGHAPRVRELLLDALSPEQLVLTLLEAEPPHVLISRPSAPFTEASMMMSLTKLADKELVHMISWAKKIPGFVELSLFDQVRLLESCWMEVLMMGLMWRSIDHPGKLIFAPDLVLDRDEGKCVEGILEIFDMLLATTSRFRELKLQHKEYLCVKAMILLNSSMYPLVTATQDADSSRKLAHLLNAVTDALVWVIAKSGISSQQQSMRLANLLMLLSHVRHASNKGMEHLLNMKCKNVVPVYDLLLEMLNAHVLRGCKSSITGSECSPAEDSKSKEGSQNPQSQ

Consider `O=C1CC[C@H](N2Cc3cc(N4CCN(CC5CCN(c6ccc([C@@H]7c8ccc(O)cc8CC[C@@H]7c7ccccc7)cc6)CC5)CC4)ccc3C2=O)C(=O)N1` [VEPDEGESTRANT], for which the inhibition in vivo at 30 mg/kg with MCF7 [1] is 105%; in data set [6], 65%; with MCF7 [7], 124%; in data set [8] it was 113%; in the data set with MCF7 [14], 131%. For the same molecule, the Cmax came out at 312 ng/mL in data set [2], 962 ng/mL in [11] and 84 ng/mL in data set [12]. Moreover, the results for the AUC(0-t) at 18 h in data set [3], in [5] and in data set [10] were 5720 ng·h/mL, 2540 ng·h/mL and 658 ng·h/mL, respectively. In addition, the Activity in data set [4] turned out to be 97%; in data set [9] it was 94%; in data set [16], 95%. In the data set with MCF7 [13], the inhibition in vivo at 10 mg/kg stood at 98%. Further, the inhibition in vivo at 200 mg/kg in the data set with MCF7 [15] was determined as 108%.
For the molecule `O=C(O)c1ccc2c(c1)CCCC(c1ccc(Cl)cc1Cl)=C2c1ccc(O[C@H]2CCN(CCCF)C2)cc1` [AMCENESTRANT], the EC50 was 595 nM in the data set on MCF7 [17], 20 nM in the data set on MCF7 [18] and 331 nM with MCF7 [19]. At Estrogen receptor beta, this molecule registered an IC50 of 8.4 nM.
Regarding `CC/C(=C(/c1ccc(/C=C/C(=O)O)cc1)c1ccc2[nH]ncc2c1)c1ccc(F)cc1Cl` [BRILANESTRANT], the inhibition in vivo at 100 mg/kg in [20] was 80%.
Take `Oc1ccc2c3c(cnc2c1)-c1ccc(C(F)(F)F)cc1O[C@@H]3c1ccc(OCCN2CC(CF)C2)cc1` [IMLUNESTRANT]: the inhibition in data set [21] and in [24] was over 75% in each case. Further, the results for the IC50 in the data set with MCF7 [22] and in the data set with MCF7 [23] were 3 nM and 17 nM, respectively.
`O=C(O)/C=C/c1ccc(Oc2c(-c3ccc(O)cc3)sc3cc(O)ccc23)cc1`: a half-maximal effect on Estrogen receptor (EC50) was put at 31 nM.
